Measurements published in patent US4242262A, “9-Nitromethyldeoxyclavulanic acid derivatives preparation and compositions” (Beecham Group Limited, priority 1977, dated 1980).

What was measured:
[1] = test system: Proteus C 889; assay: MIC of ampicillin alone or with compound of the Example, Proteus C 889; type: cell-based
[2] = test system: Kleb. E 70; assay: MIC of ampicillin alone or with compound of the Example, Kleb. E 70; type: cell-based
[3] = table 2 (no quantity or unit in head), Ampicillin alone

MIC ([1]; table 1, Ampicillin alone): > 500 µg/mL | MIC [1, 3]: > 500 µg/mL | MIC ([2]; table 1, Ampicillin alone): > 500 µg/mL | MIC [2, 3]: 22 500
Structure (SMILES): CC1(C)S[C@@H]2[C@H](NC(=O)[C@H](N)c3ccccc3)C(=O)N2[C@H]1C(=O)O [Ampicillin]
